The data set concerns skin. As to the kind of experiment: 5 day cumulative irritation patch study. It counts as in vivo. As to the method: To evaluate the skin irritation potential of cleansing products, a 5 day cumulative irritation patch study was conducted. Cumulative irritancy patch testing is a modified primary irritancy patch test that can detect weak irritants that require multiple applications to cause a skin reaction. These reactions are due to direct damage to the epidermal cells and no immunologic (allergic) mechanism is involved. The procedure used in the Examples is a modification of that described by Dr. B. M. Lanman at the Joint Conference on Cosmetic Sciences, Apr.

Each structure is given as a SMILES string.

Regarding `CCCCCCCCCCCCOS(=O)(=O)[O-].[Na+]` [0.25% SLS, sodium lauryl sulfate], the “Irritancy Class” value was “Moderately” and the “Normalized Total Score” value was 290.2.

(Values after US20230000753A1, “Encapsulated Cleansing Composition” (Henkel AG & Co. KGaA, priority 2020, published 2023).)
